Data reported in PubChem BioAssay (NCI).
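Here, GI50 denotes the concentration required for 50% inhibition of growth. TGI denotes the concentration required for complete inhibition of growth.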

Tests used:
Assay in all cases: DTP human tumour cell line panel, 384-well format
786-0 renal = tested on: 786-0 renal
A498 renal = tested on: A498 renal
A549 NSCLC = tested on: A549 NSCLC
BT-549 breast = tested on: BT-549 breast
CCRF-CEM leukemia = tested on: CCRF-CEM leukemia
COLO 205 colon = tested on: COLO 205 colon
DU-145 prostate = tested on: DU-145 prostate
EKVX NSCLC = tested on: EKVX NSCLC
HCC-2998 colon = tested on: HCC-2998 colon
HCT-15 colon = tested on: HCT-15 colon
HL-60(TB) leukemia = tested on: HL-60(TB) leukemia
HOP-62 NSCLC = tested on: HOP-62 NSCLC
HS 578T breast = tested on: HS 578T breast
IGROV1 ovarian = tested on: IGROV1 ovarian
K-562 leukemia = tested on: K-562 leukemia
KM12 colon = tested on: KM12 colon
LOX IMVI melanoma = tested on: LOX IMVI melanoma
M14 melanoma = tested on: M14 melanoma
MALME-3M melanoma = tested on: MALME-3M melanoma
MCF7 breast = tested on: MCF7 breast
MDA-MB-231 breast = tested on: MDA-MB-231 breast
MDA-MB-435 melanoma = tested on: MDA-MB-435 melanoma
MDA-MB-468 breast = tested on: MDA-MB-468 breast
MOLT-4 leukemia = tested on: MOLT-4 leukemia
NCI-H23 lung = tested on: NCI-H23 lung
NCI-H322M lung = tested on: NCI-H322M lung
NCI-H460 NSCLC = tested on: NCI-H460 NSCLC
NCI-H522 lung = tested on: NCI-H522 lung
NCI/ADR-RES ovarian = tested on: NCI/ADR-RES ovarian
OVCAR-3 ovarian = tested on: OVCAR-3 ovarian
OVCAR-4 ovarian = tested on: OVCAR-4 ovarian
OVCAR-5 ovarian = tested on: OVCAR-5 ovarian
OVCAR-8 ovarian = tested on: OVCAR-8 ovarian
RPMI-8226 leukemia = tested on: RPMI-8226 leukemia
RXF 393 renal = tested on: RXF 393 renal
SF-268 CNS = tested on: SF-268 CNS
SF-539 CNS = tested on: SF-539 CNS
SK-MEL-28 melanoma = tested on: SK-MEL-28 melanoma
SK-MEL-5 melanoma = tested on: SK-MEL-5 melanoma
SK-OV-3 ovarian = tested on: SK-OV-3 ovarian
SN12C renal = tested on: SN12C renal
SNB-19 CNS = tested on: SNB-19 CNS
SNB-75 CNS = tested on: SNB-75 CNS
SW-620 colon = tested on: SW-620 colon
TK-10 renal = tested on: TK-10 renal
U251 glioblastoma = tested on: U251 glioblastoma
UACC-257 melanoma = tested on: UACC-257 melanoma
UACC-62 melanoma = tested on: UACC-62 melanoma
UO-31 renal = tested on: UO-31 renal

Compound: CN1CCN(Cc2ccc(Nc3ncc(Cl)c(Nc4ccccc4S(=O)(=O)N(C)C)n3)cc2)CC1
- GI50 ([…]-0 renal): 109 nM
- TGI (786-0 renal): 1140 nM
- GI50 (A498 renal): 136 nM
- TGI (A498 renal): 671 nM
- GI50 (A549 NSCLC): < 10 nM
- TGI (A549 NSCLC): 750 nM
- GI50 (BT-549 breast): 117 nM
- TGI (BT-549 breast): 257 nM
- GI50 (CCRF-CEM leukemia): < 10 nM
- TGI (CCRF-CEM leukemia): 15.3 nM
- GI50 (COLO 205 colon): 16.9 nM
- TGI (COLO 205 colon): 128 nM
- GI50 (DU-145 prostate): 45.2 nM
- TGI (DU-145 prostate): 15500 nM
- GI50 (EKVX NSCLC): 192 nM
- TGI (EKVX NSCLC): 478 nM
- GI50 (HCC-2998 colon): 32 nM
- TGI (HCC-2998 colon): 251 nM
- GI50 (HCT-15 colon): 72.5 nM
- TGI (HCT-15 colon): 371 nM
- GI50 (HL-60(TB) leukemia): < 10 nM
- TGI (HL-60(TB) leukemia): 17.3 nM
- GI50 (HOP-62 NSCLC): 20.8 nM
- TGI (HOP-62 NSCLC): 73.6 nM
- GI50 (HS 578T breast): 181 nM
- TGI (HS 578T breast): 356 nM
- GI50 (IGROV1 ovarian): 62.6 nM
- TGI (IGROV1 ovarian): 21200 nM
- GI50 (K-562 leukemia): 16.5 nM
- TGI (K-562 leukemia): 233 nM
- GI50 (KM12 colon): 16.5 nM
- TGI (KM12 colon): 298 nM
- GI50 (LOX IMVI melanoma): 20.5 nM
- TGI (LOX IMVI melanoma): 201 nM
- GI50 (M14 melanoma): 98 nM
- TGI (M14 melanoma): 235 nM
- GI50 (MALME-3M melanoma): 116 nM
- TGI (MALME-3M melanoma): 252 nM
- GI50 (MCF7 breast): < 10 nM
- TGI (MCF7 breast): 1310 nM
- GI50 (MDA-MB-231 breast): 167 nM
- TGI (MDA-MB-231 breast): 1130 nM
- GI50 (MDA-MB-435 melanoma): 149 nM
- TGI (MDA-MB-435 melanoma): 441 nM
- GI50 (MDA-MB-468 breast): 41.9 nM
- TGI (MDA-MB-468 breast): 151 nM
- GI50 (MOLT-4 leukemia): < 10 nM
- GI50 (NCI-H23 lung): 98.2 nM
- TGI (NCI-H23 lung): 234 nM
- GI50 (NCI-H322M lung): 129 nM
- TGI (NCI-H322M lung): 351 nM
- GI50 (NCI-H460 NSCLC): < 10 nM
- TGI (NCI-H460 NSCLC): 10.9 nM
- GI50 (NCI-H522 lung): < 10 nM
- TGI (NCI-H522 lung): 170 nM
- GI50 (NCI/ADR-RES ovarian): 191 nM
- TGI (NCI/ADR-RES ovarian): 481 nM
- GI50 (OVCAR-3 ovarian): 52.7 nM
- TGI (OVCAR-3 ovarian): 243 nM
- GI50 (OVCAR-4 ovarian): 299 nM
- TGI (OVCAR-4 ovarian): 888 nM
- GI50 (OVCAR-5 ovarian): 128 nM
- TGI (OVCAR-5 ovarian): 605 nM
- GI50 (OVCAR-8 ovarian): 134 nM
- TGI (OVCAR-8 ovarian): 420 nM
- GI50 (RPMI-8226 leukemia): < 10 nM
- TGI (RPMI-8226 leukemia): 32.6 nM
- GI50 (RXF 393 renal): 162 nM
- TGI (RXF 393 renal): 307 nM
- GI50 (SF-268 CNS): 18.3 nM
- TGI (SF-268 CNS): 78.8 nM
- GI50 (SF-539 CNS): 18.1 nM
- TGI (SF-539 CNS): 139 nM
- GI50 (SK-MEL-28 melanoma): 133 nM
- TGI (SK-MEL-28 melanoma): 274 nM
- GI50 (SK-MEL-5 melanoma): 29.2 nM
- TGI (SK-MEL-5 melanoma): 186 nM
- GI50 (SK-OV-3 ovarian): 280 nM
- TGI (SK-OV-3 ovarian): > 100000 nM
- GI50 (SN12C renal): 140 nM
- TGI (SN12C renal): 358 nM
- GI50 (SNB-19 CNS): 224 nM
- TGI (SNB-19 CNS): > 100000 nM
- GI50 (SNB-75 CNS): 200 nM
- TGI (SNB-75 CNS): 363 nM
- GI50 (SW-620 colon): 44.8 nM
- TGI (SW-620 colon): 306 nM
- GI50 (TK-10 renal): 393 nM
- TGI (TK-10 renal): 2880 nM
- GI50 (U251 glioblastoma): 146 nM
- TGI (U251 glioblastoma): 920 nM
- GI50 (UACC-257 melanoma): 111 nM
- TGI (UACC-257 melanoma): 253 nM
- GI50 (UACC-62 melanoma): < 10 nM
- TGI (UACC-62 melanoma): 123 nM
- GI50 (UO-31 renal): 144 nM
- TGI (UO-31 renal): 448 nM
